Data: patent US20030119022A1, “Recognition and cleavage at the DNA major groove” (priority 2001, published 2003)
Values belong to the compound of their own block, whether it stands above or below them.

Key:
[1] = tested on: 5′-^32p end-labeled 514 bps restriction fragment from pBR322 DNA (Ecor I/ Rsa I); test: Reductive cleavage of 32P-end labeled DNA restriction fragment, PAGE autoradiogram; assay type: biochemical
[2] = NaBH4 reductive activation, hydrolytic cleavage
[3] = NaBH4 reductive activation, piperidine cleavage

Compound: CC(=O)OC1CCc2c1[nH]c1c2C(=O)C=C(N2CC2)C1=O (stereo not drawn) [reference compound]
- Cleavage Pattern [1, 2]: No Significant Cleavage
- Cleavage Pattern [1, 3]: G & T of 3′-GT- 5′

Compound: COS(=O)(=O)OC [DMS, reference compound]
- Cleavage Pattern ([1]; Piperidine cleavage, no reductive activation (sequencing reference lane)): G & A

Compound: CC(=O)OCc1[nH]c2c(c1C)C(=O)C(N1CC1)=CC2=O [reference compound]
- Cleavage Pattern [1, 2]: Weak Cleavage
- Cleavage Pattern [1, 3]: Some G & A

Compound: COC1=CC(=O)c2[nH]c3c(c2C1=O)CCC3OC(C)=O (stereo not drawn) [Compound 2b, 3-Acetoxy-7-methoxy-1,2,3,4-tetrahydrocyclopent[b]indole-5,8-dione]
- Cleavage Pattern [1, 2]: No Significant
- Cleavage Pattern [1, 3]: G & T of 3′-GT-
- melting point: 173 to 175 °C

- melting point: 194 to 196 °C
Compound: CCOC(=O)c1[nH]c2c(c1COC(C)=O)C(=O)C(OC)=CC2=O

Compound: COC1=CC(=O)c2[nH]c(COC(C)=O)c(COC(C)=O)c2C1=O [Compound 1d, 2,3-Diacetoxymethyl-5-methoxyindol-4,7-dione]
- Cleavage Pattern [1, 2]: recognition occurs only at 3′-GGA-5′ with phosphate alkylation and cleavage occurring largely at the center G base
- Cleavage Pattern [1, 3]: GT (5′
- melting point: 179 to 181 °C
